# Test results from patent US6180385A (priority 1996, dated 2001).
# Target: Lb proteinase (Foot-and-mouth disease virus serotype O, UniProt P03305)
# Sequence (P03305 29-201 limits assumed): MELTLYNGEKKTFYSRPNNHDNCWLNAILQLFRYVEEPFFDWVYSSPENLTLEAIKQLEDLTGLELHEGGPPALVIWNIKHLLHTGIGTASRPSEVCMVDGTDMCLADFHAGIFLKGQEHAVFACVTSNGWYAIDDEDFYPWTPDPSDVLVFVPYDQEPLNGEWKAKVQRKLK
sequence,measurement,setting,value
AKVQRKLKGAGQSSPA [LVP4-1],FMDV Lb cleavage site on the peptide (* indicates cleavage site),,K*G
same,cleavage of peptide in the absence of SDS (controls),,complete cleavage
same,peptide cleaved by Lb (qualitative),,cleaved
same,cleavage of peptide by Lb after 4 min,"lb proteinase, 4 min, 100 µM, pH 8",more than 80%
same,cleavage of peptide by Lb after 8 min,"lb proteinase, 8 min, 100 µM, pH 8",about 90%
